Source: ChEMBL document CHEMBL4715716, “Discovery of novel non-steroidal reverse indole mineralocorticoid receptor antagonists” (Bioorg Med Chem Lett, 2016)

Columns and labels:
Format in all cases: ADME, organism-based
[1] = Dose normalized AUC in rat at 2 mg/kg, po by LC/MS/MS analysis; details: in vivo
[2] = Oral bioavailability in rat at 2 mg/kg by LC/MS/MS analysis; details: in vivo
[3] = Clearance in rat at 1 mg/kg, iv or 2 mg/kg, po by LC/MS/MS analysis; details: in vivo
[4] = Half life in rat at 1 mg.kg, iv or 2 mg/kg, po by LC/MS/MS analysis; details: in vivo
[5] = Volume of distribution at steady state in rat at 1 mg/kg, iv or 2 mg/kg, po by LC/MS/MS analysis; details: in vivo, read-out: Vdss

AUC/dose [1] [µM·kg·h/mg] | bioavailability [2] [%] | clearance [3] [mL/min/kg] | half-life [4] [h] | Vd [5] [L/kg] | Compound
0.67 | 65 | 41 | 1.5 | 4.1 | CC[C@](CO)(c1ccc(Cl)cc1)n1ccc2c(NS(C)(=O)=O)cccc21
0.13 | 21 | 67 | 0.6 | 2.8 | CC[C@](C(=O)NC)(c1ccc(Cl)cc1)n1ccc2c(NS(C)(=O)=O)cccc21
